From the supplement of paper PMC11451515

System: SEM cells
Experiment: cell viability relative to DMSO control; higher = less cytotoxic
Details: 48 h
Outline: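 Viability, reported as a per-plate percentage of DMSO wells with cell-free wells as background, came from CellTiter-Glo One luminescence. Reading took place after 48 h at 37°C. Before that, NOMO1 or SEM (500 cells/well) or P12-Ichikawa (1000 cells/well) leukemia cells, adapted for at least four passages in each medium, were seeded in 1536-well plates (5 μl) and pin-dosed with library compounds in DMSO, 47 μM to 0.79 nM over 11 threefold points.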

[1] = HPLM + 10% dialyzed FBS, 0.000781 µM
[2] = HPLM + 10% dialyzed FBS, 0.00234 µM
[3] = HPLM + 10% dialyzed FBS, 0.00702 µM
[4] = HPLM + 10% dialyzed FBS, 0.0211 µM
[5] = HPLM + 10% dialyzed FBS, 0.0632 µM
[6] = HPLM + 10% dialyzed FBS, 0.19 µM
[7] = HPLM + 10% dialyzed FBS, 0.569 µM
[8] = HPLM + 10% dialyzed FBS, 1.71 µM
[9] = HPLM + 10% dialyzed FBS, 5.12 µM
[10] = HPLM + 10% dialyzed FBS, 15.4 µM
[11] = HPLM + 10% dialyzed FBS, 46.1 µM
[12] = RPMI 5 mM glucose + 10% FBS, 0.000781 µM
[13] = RPMI 5 mM glucose + 10% FBS, 0.00234 µM
[14] = RPMI 5 mM glucose + 10% FBS, 0.00702 µM
[15] = RPMI 5 mM glucose + 10% FBS, 0.0211 µM
[16] = RPMI 5 mM glucose + 10% FBS, 0.0632 µM
[17] = RPMI 5 mM glucose + 10% FBS, 0.19 µM
[18] = RPMI 5 mM glucose + 10% FBS, 0.569 µM
[19] = RPMI 5 mM glucose + 10% FBS, 1.71 µM
[20] = RPMI 5 mM glucose + 10% FBS, 5.12 µM
[21] = RPMI 5 mM glucose + 10% FBS, 15.4 µM
[22] = RPMI 5 mM glucose + 10% FBS, 46.1 µM
[23] = RPMI 5 mM glucose + 10% dialyzed FBS, 0.000781 µM
[24] = RPMI 5 mM glucose + 10% dialyzed FBS, 0.00234 µM
[25] = RPMI 5 mM glucose + 10% dialyzed FBS, 0.00702 µM
[26] = RPMI 5 mM glucose + 10% dialyzed FBS, 0.0211 µM
[27] = RPMI 5 mM glucose + 10% dialyzed FBS, 0.0632 µM
[28] = RPMI 5 mM glucose + 10% dialyzed FBS, 0.19 µM
[29] = RPMI 5 mM glucose + 10% dialyzed FBS, 0.569 µM
[30] = RPMI 5 mM glucose + 10% dialyzed FBS, 1.71 µM
[31] = RPMI 5 mM glucose + 10% dialyzed FBS, 5.12 µM
[32] = RPMI 5 mM glucose + 10% dialyzed FBS, 15.4 µM
[33] = RPMI 5 mM glucose + 10% dialyzed FBS, 46.1 µM

Row | Compound | cell viability [1] | cell viability [2] | cell viability [3] | cell viability [4] | cell viability [5] | cell viability [6] | cell viability [7] | cell viability [8] | cell viability [9] | cell viability [10] | cell viability [11] | cell viability [12] | cell viability [13] | cell viability [14] | cell viability [15] | cell viability [16] | cell viability [17] | cell viability [18] | cell viability [19] | cell viability [20] | cell viability [21] | cell viability [22] | cell viability [23] | cell viability [24] | cell viability [25] | cell viability [26] | cell viability [27] | cell viability [28] | cell viability [29] | cell viability [30] | cell viability [31] | cell viability [32] | cell viability [33]
1 | COc1cccc(Nc2c(C(N)=O)cnc3c(C)cc([S+](=O)([O-])c4cccc(C(=O)N(C)C)c4)cc23)c1 | 119% | 113% | 134% | 130% | 114% | 128% | 144% | 126% | 128% | 134% | 126% | 124% | 123% | 123% | 136% | 141% | 137% | 142% | 134% | 138% | 137% | 119% | 123% | 130% | 119% | 129% | 150% | 142% | 158% | 146% | 135% | 128% | 118%
2 | CN1\N=N/C2=C(N=C[N]2C1=O)C(N)=O | 112% | 114% | 132% | 111% | 121% | 88.2% | 60.9% | 57.7% | 51.2% | 38.7% | 25.3% | 85.8% | 102% | 106% | 86.2% | 88.5% | 67.7% | 47.6% | 50.6% | 41.9% | 28.4% | 24.1% | 105% | 115% | 139% | 116% | 113% | 78.7% | 58.7% | 37.4% | 31.9% | 28.9% | 20.5%
